Values of other authors in patent US8389778B2, “Preparation of mannitol modification III” (Aptuit (West Lafayette), LLC, priority 2007, dated 2013).

SMILES | stability of the hemihydrate (ambient conditions) | phase transformation of modification III into modification I on storage (kept dry, period of 5 years)
OC[C@@H](O)[C@@H](O)[C@H](O)[C@H](O)CO [hemihydrate, Mannitol hemihydrate] | unstable under ambient conditions | 
OC[C@@H](O)[C@@H](O)[C@H](O)[C@H](O)CO [modification III, mannitol] |  | did not transform into modification I over a period of 5 years
